Assay results: PMC7180452, “Purine and Purine Isostere Derivatives of Ferrocene: An Evaluation of ADME, Antitumor and Electrochemical Properties” (Molecules, 2020)

What was measured:
[1] = system: hepatocellular carcinoma (HepG2); experiment: In vitro antiproliferative activity, HepG2; format: cell-based, human; settings: HepG2 cells
Description: (§1) Antiproliferative activity of compounds 11a−11c, 12a−12c, 13a−13c, 14a−14c, 15a−15c, 16a, 23a−23c, 24a−24c, 25a−25c, 34a−34c and 35a−35c was evaluated in vitro on four human tumor cell lines (American Type Culture Collection, Manassas, VA, USA): metastatic colorectal adenocarcinoma (SW620), ductal pancreatic adenocarcinoma (CFPAC-1), hepatocellular carcinoma (HepG2) and cervical carcinoma (HeLa) as well as normal skin fibroblasts (HFF).

[2] = system: normal skin fibroblasts (HFF); experiment: Cytotoxicity on non-tumor cells, HFF; format: cell-based, human
Description: as §1

[3] = system: cervical carcinoma (HeLa); experiment: In vitro antiproliferative activity, HeLa; format: cell-based, human; settings: HeLa cells
Description: as §1

[4] = Metabolic stability in mouse liver microsomes; format: in vitro ADME; settings: for t1/2: mouse liver microsomes, 1 µM; for In Vivo CLh / In Vivo CLh (% LBF): mouse; for In Vivo CLh: predicted in vivo hepatic clearance; for In Vivo CLh (% LBF): predicted, % of liver blood flow
Description: Metabolic stability of compounds was assessed in human and mouse liver microsomes (Corning, Tewksbury, MA, USA). Compounds, in final concentration of 1 µM, were incubated in phosphate buffer (50 mM, pH 7.4) for 60 min at 37 °C together with liver microsomes and NADPH generating system (nicotinamide adenine dinucleotide phosphate (NADP, 0.5 mM), glucose-6-phosphate (G6P, 5 mM), glucose-6-phosphate dehydrogenase (1.5 U mL^−1) and magnesium chloride (0.5 mM)). Also, compounds were incubated without the presence of NADPH cofactor, as a buffer stability control. Metabolic activity of liver microsomes was verified by including testosterone and propranolol as positive controls, as well as caffeine as a negative control. Sampling was performed at six time points (0, 10, 20, 30, 45 and 60 min), followed by reaction termination by addition of acetonitrile/methanol mixture (2:1, v/v) containing dicofenac as internal standard. Samples were analyzed as previously described for samples from permeability assay. The in vitro half-life (t1/2) was calculated from the slope of the linear regression by plotting ln % remaining of parent compound against incubation time. In vitro intrinsic clearance, CLint was calculated from half-life using following Equation (3):(3) CLint [µL min^−1 mg^−1]=ln2/t1/2×mL per incubation/mg protein per incubation where 52.5 mg protein/g liver is used as a constant.
Predicted in vivo hepatic clearance, in vivo CLh was calculated as follows:(4) in vivo CLh [mL min^−1 kg^−1]=CLint×(mg protein/g liver)×Q×(LW/BW) /Q+(CLint×(mg protein/g liver)×(LW/BW)) where: LW/BW = liver weight/body weight [g kg^−1]; 25.7 (human), 87.5 (mouse); Q = LBF = liver blood flow [mL min^−1 kg^−1]; 21/1.26 (human), 131/7.86 (mouse).
Predicted in vivo hepatic clearance can be expressed as %LBF and calculated as follows:(5) in vivo CLh [%LBF]=in vivo CLh/LBF×100

[5] = Square-wave and cyclic voltammetry on glassy carbon electrode; format: physicochemical; settings: SWV, 0.5 mol/L NaClO4, pH 9, vs Ag/AgCl
Source text: The electrochemical properties of 6-chloro-7-deazapurine and 6-chloropurine derivatives of ferrocene 11c, 13a and 15b on a glassy carbon electrode were studied using cyclic (CV) and square-wave voltammetry (SWV) in aqueous electrolyte solutions over a wide pH range. The pH was varied from 2 to 10 in order to determine the effect of pH on the voltammograms (net peak currents and potentials). […] The pH of the solution affects the voltammetric response of this compound, i.e., the oxidation of evaluated compounds 11c, 13a and 15b is strongly dependent on it.
The forward (if) and backward (ib) components of the net response (Δi = if − ib) are shown as well (inset in Figure 2). […] The peak P1 occurs in all supporting electrolytes (i.e., at 2 ≤ pH ≤ 10), while the peak P2 is only observed at pH ≥ 9 (see Figure 1). The potential of peak P1 is pH-independent. Comparing to the literature data, peak P1 can be ascribed to the following charge transfer reaction [Fe^II(C5H5)2] ⇌ [Fe^III(C5H5)2]^+ + e^− [44, 48].
All chemicals used in the experiments were of the best grade commercially available (Sigma-Aldrich) and were used without further purification. Stock standard solutions of compounds 11c, 13a, 15b (c = 2.0 × 10^−3 mol/L) and 6-chloropurine (c = 1.2 × 10^−2 mol/L) were prepared from dry pure substances in dimethyl sulfoxide (DMSO, p.a.), purchased from Kemika (Zagreb, Croatia). Stock standard solution of ethynyl ferrocene (c = 1.1 × 10^−2 mol/L) was prepared from dry pure substance in ethanol (Kemika). For the supporting electrolyte, analytical grade NaClO4 (Kemika) was used. Water was deionized by the Millipore Milli-Q system to the resistivity ≥ 18 MΩcm. Voltammetric measurements were carried out using the computer-controlled electrochemical system „PGSTAT 101“ (Eco-Chemie, Utrecht, The Netherlands), controlled by the electrochemical software “NOVA 1.5”. A three-electrode system (BioLogic, Claix, France) with glassy carbon electrode (GCE) of 3 mm in diameter as a working electrode, Ag/AgCl (3 mol/L NaCl) as a reference electrode and a platinum wire as a counter electrode were used. All potentials were expressed versus Ag/AgCl (3 mol/L NaCl) reference electrode. The supporting electrolyte (0.5 mol/L NaClO4), adjusted to the desired pH value, was placed in the electrochemical cell and the required aliquot of the standard analyte solution was added. The solution in the electrochemical cell was degassed with high purity nitrogen for 10 min before measurement, and the nitrogen blanket was maintained thereafter. Before each run, the glassy carbon working electrode was polished with diamond suspension in spray (grain size 6 µm) and rinsed with ethanol and deionized water. All experiments were performed at room temperature. The presented results are reported as the mean value of three independent measurements.

[6] = Turbidimetric kinetic solubility assay; settings: for Kinetic Solubility: PBS, 1% DMSO, 37 °C, 2 h, estimated range; for Solubility classification: kinetic solubility, in words
Description: The turbidimetric solubility assay, which allows a rapid determination of the kinetic solubility of newly synthesized compounds using small amounts of their DMSO solutions, was used to assess the kinetic solubility [38].
The compounds’ DMSO stock solutions in concentration of 10 mM were serially diluted by factor 3.3×, 3×, 3.3× and 3× in DMSO. Prepared solutions were spiked into phosphate-buffered saline (PBS, 100 mM) to obtain final compounds’ concentrations of 100, 30, 10, 3 and 1 µM (3 µL of prepared dilutions were spiked to 297 µL of PBS, with final DMSO content of 1%, v/v). All compounds were tested in two replicas per concentration. Prepared solutions were incubated at 37 °C for 2 h with gentle shaking. Blank solutions were also prepared by spiking DMSO in PBS buffer (1% of DMSO, v/v). […] Compound/control samples are compared to the blank solution. […] Results were expressed as an estimated solubility range (lower and upper bound).

| SMILES | IC50 [1] [µM] | IC50 [2] [µM] | IC50 [3] [µM] | t1/2 [4] [min] | In Vivo CLh [4] [mL/min/kg] | In Vivo CLh (% LBF) [4] [% LBF] | Oxidation peak P1 potential (ferrocene) [5] | Oxidation peak P2 potential (triazole) [5] | Kinetic Solubility [6] [µM] | Solubility classification [6] |
| --- | --- | --- | --- | --- | --- | --- | --- | --- | --- | --- |
| Clc1ncnc2c1ccn2Cc1cn(-[c-]2cccc2)nn1.[Fe+2].c1cc[cH-]c1 [Compound 11c, 4-Chloro-7-[1-(1-ferrocenyl-1,2,3-triazol-1-yl)methyl]-7H-pyrrolo[2,3-d]pyrimidine] | 31.9 ± 4.32 | 5.89 ± 1.88 | 27.7 ± 3.23 | 1.3 | 25.6 | 99 | ~ 0.4 V | ~ 1.1 V | 3 to 10 |  |
| CC([c-]1cccc1)n1cc(Cn2cnc3ncnc(Cl)c32)nn1.[Fe+2].c1cc[cH-]c1 (centres unmarked) [Compound 15b, 6-Chloro-7-[1-(1-ferrocenyl-1-methylmethyl-1,2,3-triazol-4-yl)methyl]-7H-purine] | 37.1 ± 1.84 | 0.88 ± 1.06 | 28.97 ± 0.09 | 2.9 | 25.4 | 99 | ~ 0.4 V | ~ 1.1 V | >100 | high solubility |
| Clc1ncnc2c1ncn2Cc1cn(C[c-]2cccc2)nn1.[Fe+2].c1cc[cH-]c1 [Compound 13a, 6-Chloro-9-[1-(1-ferrocenymethyl-1,2,3-triazol-4-yl)methyl]-9H-purine] | 19.9 ± 5.12 | 3.98 ± 0.17 | 25.2 ± 4.31 | 5.5 | 25.1 | 98 | ~ 0.4 V | ~ 1.1 V | >100 | high solubility |
